{
  "source": "patent US10239887B2",
  "about": "“Positive allosteric modulators of the muscarinic acetylcholine receptor M4” (Vanderbilt University, priority 2016, dated 2019)",
  "test_system": "amphetamine-induced hyperlocomotion",
  "assay": "amphetamine-induced hyperlocomotion in rats",
  "assay_type": "in vivo, male Sprague-Dawley rats",
  "settings": "10 mg/kg p.o.; rat; 1 mg/kg amphetamine s.c.",
  "protocol": "d-Amphetamine hemisulfate was obtained from Sigma (St. Louis, Mo.). Salt-correction was used to determine the correct amount of the d-amphetamine hemisulfate form in milligrams to add to sterile water in order to yield a […] solution, which would be dosed at 1 mL/kg body weight of each animal. […] The solutions were formulated so that animals were injected with a volume equal to 10 mL/kg body weight for all compounds. The appropriate amount according to the dosage was mixed in 10% Tween 80 (Sigma) in sterile water. The mixtures were then vortexed and stored in a 39° C. sonication bath for 1 hour, until in a microsuspension (except for the highest dose, which was a suspension).\nMale Sprague-Dawley rats weighing 239-300 grams and averaging 265 g (Harlan, Inc., Indianapolis, Ind.) were used. They were housed in the animal care facility certified by the American Association for the Accreditation of Laboratory Animal Care (AALAC) under a 12-hour light/dark cycle (lights on: 6 a.m.; lights off: 6 p.m.) and had free access to food and water. The animals used in this experiment were food-deprived the evening before experimentation for oral dosing of compound/vehicle. The experimental protocols performed during the light cycle were approved by the Institutional Animals Care and Use Committee of Vanderbilt University and conformed to the guidelines established by the National Research Council Guide for the Care and Use of Laboratory Animals.\nMale Harlan Sprague Dawley rats were habituated in Smart Open Field locomotor activity test chambers (Hamilton-Kinder, San Diego, Calif.) with 16×16 photo beams to automatically record locomotor activity. […] They were monitored for an additional 30 minutes and then injected subcutaneously with vehicle or 1 mg/kg amphetamine. Animals were then monitored for an additional 60 minutes, for a total of 120 minutes. Data were expressed as changes in ambulation defined as total number of beam breaks per 5 minute interval. Terminal brain and plasma samples were collected at the end of the study for pharmacokinetic analysis.\nBehavioral data were analyzed using a two-way ANOVA with main effects of treatment and time. Post hoc analysis was performed using a Dunnett's t-test with all treatment groups compared to the VAMP group using GraphPad Prism V.5.04 (GraphPad Software, San Diego, Calif.). Data were graphed using GraphPad Prism V.5.04 (GraphPad Software, San Diego, Calif.). A probability of p<0.05 was taken as the level of statistical significance. In addition, the total number of beam breaks from the amphetamine administration (65 min) to the end of the study (120 min) was calculated and graphed. Percent Reversal was calculated as follows using Microsoft Excel: In each animal, total ambulation from t=65 to t=120 was summed. The mean of each sum was calculated in the VAMP group. Then, for each animal, Percent Reversal was calculated with the following formula: Percent Reversal=100−{[(total ambulation in each animal from t=65 to t=120)/(mean of each sum from t=65 to t=120 in VAMP group)]*100}. The mean Percent Reversal, as well as the standard error, was calculated for each dose group using GraphPad Prism V5.04.",
  "data": [
    {"smiles": "Cc1nnc2sc(C(=O)NCc3ccc(S(=O)(=O)C(F)(F)F)cc3)c(N)c2c1C", "note": "[VU0467154, reference compound]", "values": [
      {"measurement": "percent reversal of amphetamine-induced hyperlocomotion", "value": 58.9, "unit": "%"}
    ]}
  ]
}
